Columns and labels:
Human 5-lipoxygenase = biological target: T1, Human 5-lipoxygenase (Homo sapiens, UniProt P09917); assay: Activity of compounds against 5-LO enzyme (LTB4 measurement and/or fluorescence method); type: biochemical; settings: for inhibition at 10 µM: 5-LO, single concentration of 10 uM in duplicate; for IC50: 6 or 11 point dose response in duplicate
T1 construct: purchased Cayman 60402; host or cells: insect cells
T1 sequence (P09917 1-674): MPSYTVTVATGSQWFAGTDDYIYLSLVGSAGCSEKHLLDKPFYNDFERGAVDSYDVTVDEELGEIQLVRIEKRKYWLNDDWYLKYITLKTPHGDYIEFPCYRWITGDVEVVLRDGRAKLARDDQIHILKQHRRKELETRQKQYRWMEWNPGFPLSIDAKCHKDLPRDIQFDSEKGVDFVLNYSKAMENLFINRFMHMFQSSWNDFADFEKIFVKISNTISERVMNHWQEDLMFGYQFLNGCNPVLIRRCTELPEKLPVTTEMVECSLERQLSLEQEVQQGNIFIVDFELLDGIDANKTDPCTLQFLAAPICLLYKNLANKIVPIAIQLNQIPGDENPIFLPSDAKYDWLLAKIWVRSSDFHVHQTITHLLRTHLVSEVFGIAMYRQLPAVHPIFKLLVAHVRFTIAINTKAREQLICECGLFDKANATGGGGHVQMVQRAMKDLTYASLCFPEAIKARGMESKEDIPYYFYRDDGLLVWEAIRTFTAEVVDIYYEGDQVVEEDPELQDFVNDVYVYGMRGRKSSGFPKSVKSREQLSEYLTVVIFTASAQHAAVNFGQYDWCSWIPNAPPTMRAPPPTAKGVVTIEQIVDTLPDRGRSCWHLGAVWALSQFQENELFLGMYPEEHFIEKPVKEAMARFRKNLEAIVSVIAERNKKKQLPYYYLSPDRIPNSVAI
How it was run: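 Insect-cell human 5-LO preincubated 15 min at RT with compound (pH 7.4, 2 mM CaCl2, 0.1 mM ATP, 1% DMSO), then 3 uM arachidonic acid for 5 min at 37 °C; LTB4 quantified by EIA and/or LC/MS/MS. Alternatively, fluorescence of 5-HpETE via H2DCFDA, 100 uM ATP, 3 uM arachidonic acid, 5 min, RT; single 10 uM screen then 6- or 11-point IC50.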

melting point	inhibition at 10 µM (Human 5-lipoxygenase) [%]	IC50 (Human 5-lipoxygenase) [nM]	SMILES
222 to 223 °C	< 40	–	CCc1nc2ccc(Cl)cn2c1C(=O)NCc1ccc(N2CCCC2)cc1 [compound 191, 6-Chloro-2-ethyl-N-(4-(pyrrolidin-1-yl)benzyl)imidazo[1,2-a]pyridine-3-carboxamide]
144.2 °C	> 69	< 1000	CCc1nc2ccccn2c1C(=O)NCc1ccc(N2CCC(COc3ccc(F)cc3)CC2)cc1 [compound 243, 2-Ethyl-N-(4-(4-((4-fluorophenoxy)methyl)piperidin-1-yl)benzyl)imidazo[1,2-a]pyridine-3-carboxamide]
169.7 °C	> 69	1000 to 20000	CCc1nc2ccc(Cl)cn2c1C(=O)NCc1ccc2oc(C3CCCCC3)nc2c1 [compound 298, 6-Chloro-N-((2-cyclohexylbenzo[d]oxazol-5-yl)methyl)-2-ethylimidazo[1,2-a]pyridine-3-carboxamide]
176 to 177 °C	< 40	–	CCc1nc2ccc(Cl)cn2c1C(=O)NCC1CCN(Cc2ccc(F)cc2)CC1 [compound 139, 6-Chloro-2-ethyl-N-((1-(4-fluorobenzyl)piperidin-4-yl)methyl)imidazo[1,2-a]pyridine-3-carboxamide]
> 168 °C (dec.)	40 to 69	–	CCc1nc2ccc(Cl)cn2c1C(=O)NCc1cccc(N2CCN(c3ccc(OC(F)(F)F)cc3)CC2)c1 [compound 356, 6-chloro-2-ethyl-N-(3-(4-(4-(trifluoromethoxy)phenyl)piperazin-1-yl)benzyl)imidazo[1,2-a]pyridine-3-carboxamide]
148.6 to 148.8 °C	–	1000 to 20000	CCc1nc2ccc(Cl)cn2c1CNc1ccc(Oc2ccc(F)cc2)cc1 [compound 379, N-((6-Chloro-2-ethylimidazo[1,2-a]pyridin-3-yl)methyl)-4-(4-fluorophenoxy)aniline]
176.7 °C	< 40	–	CCNC(=O)c1c(CC)nc2ccc(Cl)cn12 [compound 238, 6-Chloro-N,2-diethylimidazo[1,2-a]pyridine-3-carboxamide]
215 to 216 °C	40 to 69	–	CCc1nc2c[n+]([O-])ccn2c1C(=O)NCc1ccc(OC(F)(F)F)cc1 [compound 142, 2-Ethyl-3-((4-(trifluoromethoxy)benzyl)carbamoyl)imidazo[1,2-a]pyrazine 7-oxide]
162.2 °C	< 40	–	CCc1nc2ccc(Cl)cn2c1C(=O)NCC(C)C [compound 239, 6-Chloro-2-ethyl-N-isobutylimidazo[1,2-a]pyridine-3-carboxamide]
> 142.7 °C (dec.)	< 40	–	CCc1nc2ccc(Cl)cn2c1C(=O)NCc1cccc(OCc2ccc(OC(F)(F)F)cc2)c1 [compound 353, 6-chloro-2-ethyl-N-(3-((4-(trifluoromethoxy)benzyl)oxy)benzyl)imidazo[1,2-a]pyridine-3-carboxamide]
200.6 °C	< 40	–	CCc1nc2c(C(F)(F)F)cccn2c1C(=O)NCc1ccc(N2CCOCC2)cc1 [compound 274, 2-Ethyl-N-(4-morpholinobenzyl)-8-(trifluoromethyl)imidazo[1,2-a]pyridine-3-carboxamide]
115 to 116 °C	< 40	–	CCc1nc2ccc(Cl)cn2c1C=O [compound 145, 6-Chloro-2-ethylimidazo[1,2-a]pyridine-3-carbaldehyde]
204.1 °C	> 69	1000 to 20000	CCc1nc2c(F)cccn2c1C(=O)NCc1ccc(N2CCN(c3ccc(F)cc3)CC2)cc1 [compound 223, 2-Ethyl-8-fluoro-N-(4-(4-(4-fluorophenyl)piperazin-1-yl)benzyl)imidazo[1,2-a]pyridine-3-carboxamide]
223 to 224 °C	< 40	–	CCc1nc2ccc(Cl)cn2c1C(=O)NCc1ccc(C#N)cc1 [compound 134, 6-Chloro-N-(4-cyanobenzyl)-2-ethylimidazo[1,2-a]pyridine-3-carboxamide]
164.5 °C	> 69	–	CCc1nc2cc(Cl)ccn2c1C(=O)NCc1ccc(N2CCC(c3ccccc3)CC2)cc1 [compound 209, 7-Chloro-2-ethyl-N-(4-(4-phenylpiperidin-1-yl)benzyl)imidazo[1,2-a]pyridine-3-carboxamide]
102 °C	–	> 20000	CCc1nc2ccc(Cl)cn2c1CNc1ccc(-c2ccc(OC(F)(F)F)cc2)cc1 [compound 383, N-((6-chloro-2-ethylimidazo[1,2-a]pyridin-3-yl)methyl)-4′-(trifluoromethoxy)biphenyl-4-amine]
> 220 °C	< 40	–	CCc1nc2cc(Cl)ccn2c1C(=O)NCc1nc2cc(-c3ccc(OC(F)(F)F)cc3)ccc2o1 [compound 370, 7-chloro-2-ethyl-N-((5-(4-(trifluoromethoxy)phenyl)benzo[d]oxazol-2-yl)methyl)imidazo[1,2-a]pyridine-3-carboxamide]
> 133.7 °C (dec.)	< 40	–	CCc1nc2ccccn2c1C(=O)NCc1ccc(C2CCOCC2)cc1 [compound 362, 2-ethyl-N-(4-(tetrahydro-2H-pyran-4-yl)benzyl)imidazo[1,2-a]pyridine-3-carboxamide]
202.6 °C	< 40	–	CCc1nc2cc(Br)ccn2c1C(=O)NCc1ccc(N2CCOCC2)cc1 [compound 253, 7-Bromo-2-ethyl-N-(4-morpholinobenzyl)imidazo[1,2-a]pyridine-3-carboxamide]
129 to 130 °C	< 40	–	CCc1nc2ccc(Cl)cn2c1C(=O)NCCc1ccc(OC)cc1 [compound 136, 6-Chloro-2-ethyl-N-(4-methoxyphenethyl)imidazo[1,2-a]pyridine-3-carboxamide]
> 142.3 °C (dec.)	< 40	–	CCc1nc2ccc(Cl)cn2c1C(=O)NCc1cccc(N(C)Cc2ccc(OC(F)(F)F)cc2)c1 [compound 352, 6-chloro-2-ethyl-N-(3-(methyl(4-(trifluoromethoxy)benz)amino)benzyl)imidazo[1,2-a]pyridine-3-carboxamide]
192.7 °C	–	< 1000	CCc1nc2cccnn2c1CNc1ccc(N2CCN(c3ccc(F)cc3)CC2)cc1 [compound 396, N-((2-Ethylimidazo[1,2-b]pyridazin-3-yl)methyl)-4-(4-(4-fluorophenyl)piperazin-1-yl)aniline]
179.8 °C	< 40	–	CCc1nc2cc(Cl)ccn2c1C(=O)NCc1ccc(N2CCC(CO)CC2)cc1 [compound 212, 7-Chloro-2-ethyl-N-(4-(4-(hydroxymethyl)piperidin-1-yl)benzyl)imidazo[1,2-a]pyridine-3-carboxamide]
197.3 °C	< 40	–	CCc1nc2c(F)cccn2c1C(=O)NCc1ccc(N2CCOCC2)cc1 [compound 242, 2-Ethyl-8-fluoro-N-(4-morpholinobenzyl)imidazo[1,2-a]pyridine-3-carboxamide]
223.5 to 225.6 °C	< 40	–	CCc1nc2ccc(Cl)cn2c1C(=O)NCc1cc2cc(Cl)ccc2o1 [compound 366, 6-chloro-N-((5-chlorobenzofuran-2-yl)methyl)-2-ethylimidazo[1,2-a]pyridine-3-carboxamide]
214.6 °C	> 69	1000 to 20000	CCc1nc2cc(Br)ccn2c1C(=O)NCc1ccc(N2CCN(c3ccc(F)cc3)CC2)cc1 [compound 304, 7-Bromo-2-ethyl-N-(4-(4-(4-fluorophenyl)piperazin-1-yl)benzyl)imidazo[1,2-a]pyridine-3-carboxamide]
228.2 °C	< 40	–	CCc1nc2ccc(Br)cn2c1C(=O)NCc1ccc(N2CCOCC2)cc1 [compound 240, 6-Bromo-2-ethyl-N-(4-morpholinobenzyl)imidazo[1,2-a]pyridine-3-carboxamide]
167.5 °C	–	< 1000	CCc1nc2cc(Cl)ccn2c1COc1ccc(N2CCN(c3ccc(F)cc3)CC2)cc1 [compound 400, 7-chloro-2-ethyl-3-((4-(4-(4-fluorophenyl)piperazin-1-yl)phenoxy)methyl)imidazo[1,2-a]pyridine]
126.3 to 127.2 °C	40 to 69	–	CCc1nc2ccc(Cl)cn2c1C(=O)NCc1cccc(N2CCC(Oc3ccc(OC(F)(F)F)cc3)CC2)c1 [compound 360, 6-chloro-2-ethyl-N-(3-(4-(4-(trifluoromethoxy)phenoxy)piperidin-1-yl)benzyl)imidazo[1,2-a]pyridine-3-carboxamide]

— patent US9029389B2 (Institut Pasteur Korea, priority 2011, dated 2015)
